The results in this text go back to ChEMBL document CHEMBL1134868, “Phosphonate and phosphinate analogues of N-acylated gamma-glutamylglutamate. potent inhibitors of glutamate carboxypeptidase II” (Bioorg Med Chem Lett, 2002).

Usually IC50 stands for the point on the concentration scale where inhibition reaches its midpoint. High values mean weaker potency in that assay, low ones greater potency in that assay.

Assay [1] concerns the target T1, Folylpolyglutamate synthase, mitochondrial (Homo sapiens, UniProt Q05932).
T1 sequence (Q05932 whole entry): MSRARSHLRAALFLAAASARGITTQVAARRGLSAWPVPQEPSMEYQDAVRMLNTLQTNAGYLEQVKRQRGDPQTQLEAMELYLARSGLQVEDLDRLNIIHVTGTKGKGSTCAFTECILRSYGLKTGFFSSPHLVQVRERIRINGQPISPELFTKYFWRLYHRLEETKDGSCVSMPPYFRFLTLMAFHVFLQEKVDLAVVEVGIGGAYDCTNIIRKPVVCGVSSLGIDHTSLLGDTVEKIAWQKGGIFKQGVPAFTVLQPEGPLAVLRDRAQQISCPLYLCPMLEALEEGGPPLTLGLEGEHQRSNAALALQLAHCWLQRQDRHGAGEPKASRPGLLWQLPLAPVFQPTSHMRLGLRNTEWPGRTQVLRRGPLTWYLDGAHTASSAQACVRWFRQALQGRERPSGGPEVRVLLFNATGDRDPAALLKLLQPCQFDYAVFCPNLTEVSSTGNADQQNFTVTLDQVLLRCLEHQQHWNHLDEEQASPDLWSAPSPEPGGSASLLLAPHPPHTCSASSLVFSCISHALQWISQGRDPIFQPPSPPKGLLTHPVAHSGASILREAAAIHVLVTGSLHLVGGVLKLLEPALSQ
As to the kind of experiment: Compound was evaluated for its ability to inhibit Folyl-poly-gamma-glutamyl synthetase.

Assay [2] in a line: Compound was evaluated for its ability to inhibit Gamma glutamylhydroxylase.
The target in assay [3] is Glutamate carboxypeptidase 2 (Rattus norvegicus, UniProt P70627). As to the kind of experiment: Compound was evaluated for its ability to inhibit Glutamate carboxypeptidase-II using N-acetyl-L-aspartyl-[3H]L-glutamate as substrate.
Glutamate carboxypeptidase 2, sequence (P70627 whole entry): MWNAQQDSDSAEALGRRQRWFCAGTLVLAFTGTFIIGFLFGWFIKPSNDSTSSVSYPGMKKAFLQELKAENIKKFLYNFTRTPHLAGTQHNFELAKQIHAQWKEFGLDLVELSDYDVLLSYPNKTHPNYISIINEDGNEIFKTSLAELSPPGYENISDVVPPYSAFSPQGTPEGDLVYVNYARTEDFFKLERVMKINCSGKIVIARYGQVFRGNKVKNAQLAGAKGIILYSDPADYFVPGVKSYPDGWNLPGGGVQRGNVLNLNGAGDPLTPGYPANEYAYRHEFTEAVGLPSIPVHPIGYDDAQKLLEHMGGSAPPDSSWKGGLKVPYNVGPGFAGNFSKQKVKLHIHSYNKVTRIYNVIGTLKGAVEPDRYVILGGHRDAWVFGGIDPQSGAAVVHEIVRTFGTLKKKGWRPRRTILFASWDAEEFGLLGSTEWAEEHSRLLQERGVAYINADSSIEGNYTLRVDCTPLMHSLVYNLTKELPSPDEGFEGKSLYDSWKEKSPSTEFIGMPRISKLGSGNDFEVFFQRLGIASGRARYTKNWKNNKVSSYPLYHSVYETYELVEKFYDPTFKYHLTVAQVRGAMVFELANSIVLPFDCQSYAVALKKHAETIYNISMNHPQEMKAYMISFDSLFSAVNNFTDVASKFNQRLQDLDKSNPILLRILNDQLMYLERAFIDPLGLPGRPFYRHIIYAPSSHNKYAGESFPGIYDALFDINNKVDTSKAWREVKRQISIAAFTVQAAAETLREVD

With `CN(Cc1cnc2nc(N)nc(N)c2n1)c1ccc(C(=O)N[C@@H](CCP(=O)(O)O[C@@H](CCC(=O)O)C(=O)O)C(=O)O)cc1`, the figures for the concentration for half-maximal inhibition (IC50) in assay [1], in assay [2] and in assay [3] were 120 nM, greater than 200 µM and 4 nM, respectively.
Consider `CN(Cc1cnc2nc(N)nc(N)c2n1)c1ccc(C(=O)NC(CCP(=O)(O)OC(CCC(=O)O)C(=O)O)C(=O)O)cc1` (stereo not given), for which the IC50 is 20 nM in assay [1] and 5 nM in assay [3].
Take `CNc1ccc(C(=O)N[C@@H](CCP(=O)(O)O[C@@H](CCC(=O)O)C(=O)O)C(=O)O)cc1`: the IC50 in assay [1] was found to be 5700 nM; in assay [3] it was 4 nM.
With `Nc1ccc(C(=O)N[C@@H](CCP(=O)(O)O[C@@H](CCC(=O)O)C(=O)O)C(=O)O)cc1`, the concentration for half-maximal inhibition (IC50) in assay [1] was 8600 nM; in assay [2] it was greater than 200 µM; in assay [3], 3 nM.
